Entries after “also recorded” stand apart in the source; their conditions may differ.
What was measured:
[1] = test system: A2780 ovarian cancer cells; experiment: Western blot protein expression; assay type: cell-based, human; settings: for ATF3 protein expression compared to control / HPD protein expression compared to control / NMDAR2C protein expression compared to control / RAB27A protein expression compared to control / SLC39A3 (ZIP3) protein expression compared to control / SQSTM1 protein expression compared to control: 24 hrs treatment, Western blot
Protocol: A2780 ovarian cancer cells cell line was cultured in 60 or 100 mm^3 cell culture dishes. Once the plated were 80% confluent, the cells were incubated in the presence and absence of either R,R-D2 or R,R-D4. After 24 hrs of drug treatment, proteins were extracted from the cells using 200-500 μl of either RIPA or MPER protein extraction reagent buffer or both. Halt protease inhibitor cocktail from Thermo Fisher was added to the protein extraction reagents. The protein concentration was measured using BCA kit from Promega. The freshly extracted proteins (40 to 50 μg) were run on a 4-12% or 4-20% tris-glycine gels, at 120 V for 2 to 3 hours after which the proteins were transferred onto nitrocellulose membranes for one hour. Then the blots were incubated in 5% milk. The following primary antibodies were incubated overnight in 5% milk. These antibodies include: mouse anti-rabbit IgG-FITC, mouse anti-goat IgG-PE, anti-mouse IgG2a-PE, SQSTM1 (D-3), Egr-2 (H-220), ZIP3 (D-14), TOX1 (T-12), ATF-3 (H-90), NMDAμ4 (C-20), HPPD (H-300), Fos B (C-20), PPT2 (C-18), Hep G2 Cell Lysate, TMEM106B (C-12), xCT (Q-18) after which the proteins were detected by species-specific HRP-conjugated secondary antibody using ECL chemiluminescence kit purchased from GE health care.
To confirm that the modulation of the genes listed in Table 1, following treatment with RRD2 and RRD4 in the human ovarian cancer cell line, A2780, also affects the protein expression of these genes, some representative genes from Table 1 were assessed for their corresponding protein expression as measured by Western Blot using protein specific antibodies. The protein expressions for HPD, SQSTM1, ATF3, NMDAR2C were higher compared to the control samples while RAB27A and SLC39A3 (ZIP3) expressions were lower than the control samples following treatment with the aforementioned compounds (FIGS. 4A-4B). Note that HPD and NMDAR2C were calibrated against both actin and GADPH (FIG. 4C). As indicated in the Tables, overexpressed proteins/genes are implicated in protecting neurons from a variety of neurodegenerative diseases.

[2] = test system: Human Ovarian cancer cells, A2780; experiment: CHIP array: whole genome expression (HumanHT-12 v4.0 BeadChip); assay type: cell-based; settings: 12 or 24 hours, vs control or untreated cells; for Fold change expression of ATF / Fold change expression of NMDAR2C: direction ↑; for Fold change expression of RAB27A / Fold change expression of SLC39A3: direction ↓
Protocol: Human Ovarian cancer cells, A2780, were treated with compound and different concentration for 12 or 24 hours. The total RNA from the treated human cells were extracted by Trizol (Invitrogen) and purified by Rneasy Mini kit (Qiagen, Valencia, Calif.). The concentration and integrity of all RNA samples were assessed using the NanoDrop ND-2000 spectrophotometer (NanoDrop Technologies, Wilmington, Del.) and the Bioanalyzer 2100 system (Agilent Technologies, Santa Clara, Calif.). 1 ug of total RNA from each sample were subjected to whole-genome gene expression analysis at the Microarray Core Facility of University of Texas Southwestern Medical Center (https://microarray.swmed.edu) using the HumanHT-12 v4.0 BeadChip (Illumina, San Diego, Calif.) according to the manufacturer's instructions. Microarray data were extracted using BeadStudio v3.1 software, background-subtracted, and normalized using a cubic spline algorithm. Genes differentially expressed between groups were identified using the Illumina custom error model implemented in BeadStudio. […] The pathways and interaction networks that the genes involved were further analyzed by Ingenuity Pathyway analysis software (www.ingenuity.com).
The treatment of A2780, human ovarian cancer cell line at different concentrations were examined for the differential gene expression compared to the whole human genome and compared to untreated samples (controls). A representative heat map reflecting the fold change in expressions of genes modulated by RRD2 involved in neurodegenerative diseases is shown in FIG. 3. […] These genes are implicated in neurological disorders and neurodegenerative diseases and the modulation of these genes by Phosphaplatins is significant for providing neuroprotection.

hippocampal slices = experiment: Zero magnesium model of epileptiform activity in hippocampal slices; assay type: cell-based, rat; settings: slices incubated in 20 μM for 15 minutes, then zero magnesium solution, N=6
Protocol: Sprague-Dawley male rats (P14-18) were deeply anesthetized with ether and after the decapitation, the brains were removed rapidly and laced in the fresh high sucrose dissection solution. After hippocampus isolation, hippocampal slices ([…]) were prepared using a Vibratome. The prepared slices were incubated in the artificial cerebrospinal fluid (ACSF) (pH 7.3) for half an hour. After incubating period, slices were transferred to recording chamber while oxygenated ACSF was continuously perfused constantly with the rate of 2 ml/min at 30° C. Borosilicate glass recording electrodes were filled with 0.9% NaCl (1-2 MΩ) and used for extracellular field potential recordings. Extracellular recordings were done from the border area between radiatum and pyramidale layers. Filled micropipettes (4-7 MΩ) containing intracellular solution were used for whole cell current-clamp recordings in the CA1 pyramidale layer. To elicit action potential activity, depolarizing square wave current pulses incremented by 20 pA were injected into the somas for 500-1000 ms, followed by 10 ms return to the baseline holding membrane potential (−80 mV). In addition, to square wave current pulses, slow depolarizing ramp-like current injections were used to quantify action potential threshold values. Neuronal membrane and field potential recordings were performed in control and in the RRD4 groups. […]

[3] = test system: hippocampal slices, CA1 pyramidale layer; experiment: Whole cell current-clamp recordings of action potentials in hippocampal slices; assay type: cell-based; settings: rat hippocampal slices perfused with 20 μM, vs control, N=6
Protocol: Sprague-Dawley male rats (P14-18) were deeply anesthetized with ether and after the decapitation, the brains were removed rapidly and laced in the fresh high sucrose dissection solution. After hippocampus isolation, hippocampal slices ([…]) were prepared using a Vibratome. The prepared slices were incubated in the artificial cerebrospinal fluid (ACSF) (pH 7.3) for half an hour. After incubating period, slices were transferred to recording chamber while oxygenated ACSF was continuously perfused constantly with the rate of 2 ml/min at 30° C. Borosilicate glass recording electrodes were filled with 0.9% NaCl (1-2 MΩ) and used for extracellular field potential recordings. Extracellular recordings were done from the border area between radiatum and pyramidale layers. Filled micropipettes (4-7 MΩ) containing intracellular solution were used for whole cell current-clamp recordings in the CA1 pyramidale layer. To elicit action potential activity, depolarizing square wave current pulses incremented by 20 pA were injected into the somas for 500-1000 ms, followed by 10 ms return to the baseline holding membrane potential (−80 mV). In addition, to square wave current pulses, slow depolarizing ramp-like current injections were used to quantify action potential threshold values. Neuronal membrane and field potential recordings were performed in control and in the RRD4 groups. RDD4 group brain slices were perfused with 20 μM RRD4. Zero magnesium model of inducing epileptiform activities was used in these experiments. In the treated group slices were incubated in 20 μM RRD4 for 15 minutes, and then were exposed to zero magnesium solution.
The neurodegeneration observed in many diseases has been associated with a progressive decrease in neuronal activity and synaptic dismantling is associated with many neurodegenerative diseases. A potential strategy for preventing and/or halting neurodegenerative disease is by modulating intrinsic properties of individual neurons. Applicants observed that RRD4 pretreatment increased action potential threshold (FIG. 5). Action potential threshold was measured at the beginning of the sharp upward rise of the depolarizing phase of the action potential. (*P<0.05). Based on the data, RRD4 increases action potential (AP) threshold and decreases its amplitude. […] Further, pretreated slices with RRD4 had lower peak potential amplitude (FIG. 6). Mean values for the AP amplitude is voltage difference in 10-90% rise time in each action potential. (*P<0.05).

Structure (SMILES): N[C@@H]1CCCC[C@H]1N.O=P([O-])(O)OP(=O)([O-])O.[Pt+2] [RRD2]
- RAB27A protein expression vs untreated cells ([1]; 20 μM, FIG. 4A): overexpressed in untreated cells as compared to cells treated
- ATF3 protein expression compared to control [1]: higher
- HPD protein expression compared to control [1]: higher
- NMDAR2C protein expression compared to control [1]: higher
- RAB27A protein expression compared to control [1]: lower
- SLC39A3 (ZIP3) protein expression compared to control [1]: lower
- SQSTM1 protein expression compared to control [1]: higher
- Fold change expression of ATF [2]: 10↑ fold
- Fold change expression of NMDAR2C [2]: 8↑ fold
- Fold change expression of RAB27A [2]: 1.7↓ fold
- Fold change expression of SLC39A3 [2]: 2↓ fold

Structure (SMILES): NC1CCCCC1N.O=P1(O)OP(=O)(O)[O][Pt]([OH])([OH])[O]1 [RRD4]
- Time to seizure onset (seizure threshold, first seizure formation) (hippocampal slices): significant effect in delaying; also recorded: significantly delayed
- Action potential (AP) amplitude [3]: lower; also recorded: decreased significantly
- Action potential (AP) threshold [3]: increased; also recorded: raised
- Input resistance [3]: no effect
- Membrane depolarization in treated cells [3]: significantly more depolarized
- RAB27A protein expression vs untreated cells ([1]; 25 μM, FIG. 4A): overexpressed in untreated cells as compared to cells treated
- SQSTM protein expression vs untreated cells ([1]; 25 μM, FIG. 4A): enhanced expression
- ATF3 protein expression compared to control [1]: higher
- HPD protein expression compared to control [1]: higher
- NMDAR2C protein expression compared to control [1]: higher
- RAB27A protein expression compared to control [1]: lower
- SLC39A3 (ZIP3) protein expression compared to control [1]: lower
- SQSTM1 protein expression compared to control [1]: higher
- Fold change expression of ATF [2]: 10↑ fold
- Fold change expression of NMDAR2C [2]: 8↑ fold
- Fold change expression of RAB27A [2]: 1.7↓ fold
- Fold change expression of SLC39A3 [2]: 2↓ fold

Reference: US20170224711A1, “COMPOSITIONS AND METHODS FOR THE TREATMENT OF NEURODEGENERATIVE DISEASES” (University of Houston System, priority 2014, published 2017)
